The values below come from patent US6492427B2, “Methods for treating multiple sclerosis” (priority 1998, dated 2002).

Format in all cases: cell-based, rat
One test relates to PROLs. The test is described as follows: Methylene blue counts of individual cell types: PROLs. The settings on record: BM-D9, 24 h. The method, then:
(§1) Methylene blue (3,7-bis (dimethylamino)-phenothiazin-5-ium chloride), a ribonucleic acid (RNA) binding agent commonly used as an alternative nucleic acid stain, can also be used as a biological staining agent to stain cells in order to observe their morphological features. At 24 h, cells were fixed in 2% paraformaldehyde for 15 min at room temperature. Briefly, cells were washed twice with PBS and 100 μl of 1% methylene blue (Mallinckrodt Chemical Co., MO, USA) solution containing 1% AgNO3 was added for 10 min to the wells containing coverslips. Subsequently, the coverslips were washed with two changes of distilled water and absolute ethanol, cleared with xylene and mounted on slides with permount.
(§2) Cell counts were performed for 25 randomly chosen 100 power fields on each coverslip. Two randomly generated coordinates drawn from a uniform distribution of random numbers specified the center of each field. The random numbers were generated on a computer by using Microcal Origin 4.0 program. […] Three coverslips was counted for each treatment condition. In subsequent experiments, different cell types (for example, O-2A progenitors, PROLs, OLs and astrocytes) were morphologically identified on each field and were counted separately for experimental series-I and II. […]

A further test has as its system ASTs. The test is described as follows: Methylene blue counts of individual cell types: ASTs. The following applies: BM-D9, 24 h. Here is the method:
as §1, §2

Test [1] concerns oligodendroglial cells. The test is described as follows: In situ DNA end labeling (ApopTag), counts of apoptotic nuclei. The following applies: 6, 12, 15, 18, 24 h, both experimental series. Here is the method: The ApopTag™ method utilizes an ApopTag™ in situ apoptosis detection kit (Oncor, Md., USA), which detects nuclei with, cut 3′-OH ends of DNA. Oligodendrocytes at 16 DIV were treated with BM, BM-D9, IM and IM-D9 for 6, 12, 15, 18 and 24 h. Cells were fixed in 2% paraformaldehyde, followed by three washes in 0.1M PBS and permeabilization with 0.05% Tween-20 in PBS for 10 min at room temperature. Endogenous peroxidase was quenched with 1% H2O2 in PBS for 5 min at room temperature. Coverslips were then covered with 1 X equilibration buffer for 30 min at room temperature and then incubated with terminal deoxynucleotidyl transferase (TdT)/reaction buffer (76 μl of reaction buffer+32 μl of TdT enzyme) for 1 h at 37° C. A stop wash buffer incubation for 30 min at 37° C. was used to terminate the 3′-OH DNA extension reaction. After a PBS wash, the coverslips were incubated with antidigoxigenin peroxidase antibody. After three washes with 0.1M PBS, chromogenic detection was carried out using DAB (1.5 mg/ml) mixed with hydrogen peroxide (H2O2; 0.02% v/v) yielding a brown reaction product. Coverslips were dehydrated in ascending grade alcohol series, cleared with xylene and mounted on slides using a drop of permount. ApopTag™ positive nuclei were randomly counted in triplicate (described in section 2.5), for each of the time points, for experimental series-I and II.

Test [2] has as its system oligodendroglial cells. The test is described as follows: Nuclear integrity assay: counts of intact nuclei (Zap-oglobin lysis) after insulin and IGF-I withdrawal. The following applies: for increase in number of intact nuclei compared to BM: BM + 10^−9 M (BM-D9) vs BM; for number of intact nuclei compared to IM: IM + 10^−9 M (IM-D9). The method, then: In order to examine insulin and IGF-I dependent survival of the cells of the oligodendroglial lineage, cells were trophically deprived for a period of 24 hours at 16 DIV.
Cells were trophically withdrawn by replacing the media with a serum free, chemically-defined base media (BM) lacking insulin and IGF-I (Bottenstein et al., 1988). The base media consisited of DMEM supplemented with penicillin (50 IU/ml); streptomycin (50 μg/ml); 1 mM sodium pyruvate; 50 μg/ml transferrin; 0.005 μg/ml sodium selenite; 16 μg/ml putrescine; 0.006 μg/ml progesterone and 0.1 mg/ml bovine serum albumin. All the cells were washed with BM twice before exposing them to individual treatment conditions. Control cells were washed and placed in BM supplemented with 2.5 ng/ml IGF-I and 5 μg/ml insulin to form the insulin media (IM).
Cell survival in the cultures was assessed according to the method of (Soto and Sonnenschein, 1985). After washing and treatment in BM, BM-D9, IM and IM-D9 for 24 h, cells were harvested, centrifuged at 500 rpm for 5 min and the supernatant removed. Pelleted cells were then lysed with 200 μl of 10% Zap-oglobin (Coulter Electronics, FL, USA). The lysing agent is a detergent containing solution that lyses the plasma membrane but leaves the nuclei intact. The lysed solution was collected and vortexed. A small volume (10 μl) of the solution was removed and intact nuclei were counted using a haemocytometer. To be counted, nuclei had to show a completely intact smooth outer border. Counts of intact nuclei were pooled for three or four experiments (a total of 15-20 wells were used for each treatment condition). each treatment condition).
OLs at 16 DIV were exposed to the different drug treatment conditions for 24 h, following which, the nuclear integrity assay was performed. On the day of the treatment, the cells growing in Nunc 24 well plates were washed twice with base media. Each treatment well received 50 μl of the appropriate drug solution and the total volume in the well was made up to 500 μl with either BM or IM.
Nuclear counts were obtained from quadruplicate wells per treatment condition and the experiment was repeated twice. OLs were exposed to the following treatment conditions: 1) IM, 2) BM, 3) BM-D9, 4) (−)-Desmethyldeprenyl (BM-Ds9), 5) IM-D9 and 6) IM +10^−9 M (−)-Desmethyldeprenyl (IM-Ds9).
The treatment conditions with the three general cytochrome P450 blockers were: 1) BM+Proadifen (2.5, 10, 25 μM), 2) BM-D9+Proadifen (2.5, 10, 25 μM), 3) BM-Ds9+Proadifen (2.5, 10, 25 μM), 4) BM+Metapyrone (50 μM), 5) BM-D9+Metapyrone (50 μM), 6) BM-Ds9+Metapyrone (50 μM), 7) BM+Piperonyl butoxide (100 μM), 5) BM-D9+Piperonyl butoxide (100 μM), 6) BM-Ds9+Piperonyl butoxide (100 μM).
OLs at 16 DIV were washed twice with base media and exposed either to actinomycin, a transcriptional blocker or cycloheximide, a translational blocker for 24 h. […] Actinomycin and cycloheximide were either used with base media alone or in combination with 10^−9 M (−)-desmethyldeprenyl. Each treatment well received 50 μl of the drug solution and the total volume of the well was made up to 500 μl with base media.
Counts of intact nuclei, obtained from quadruplicate wells per treatment condition were used to quantitate the effects of the transcriptional and translational blockers. Each experiment was repeated twice for experimental density series-II.

As to `C#CCN(C)[C@H](C)Cc1ccccc1` [(−)-deprenyl, R-(−)-N,α-Dimethyl-N-2-propynyl phenethylamine], the “PROL cell numbers compared to those in BM” value in the test on PROLs (experimental series II) came out at 275%; in the test on PROLs (experimental series-I), 739.2%. Besides, the “AST cell numbers compared to those in BM” value was found to be 132% with ASTs (experimental series II) and 570% in the test on ASTs (experimental series-I). In addition, the “number of ApopTag positive nuclei” value is recorded as “did not significantly change the number of ApopTag™ positive nuclei” in the test on oligodendroglial cells [1] (10^−9 M added to IM); “significantly decreased the numbers of ApopTag™ nuclei in both experimental series” in the test on oligodendroglial cells [1] (10^−9 M added to base media (BM)); “reduced the incidence of apoptotic nuclei at all the time points” in the test with oligodendroglial cells [1] (10^−9 M added to base media (BM), listed as (−)-Deprenyl). Besides, the “increase in number of intact nuclei compared to BM” value amounted to 217% in the test with oligodendroglial cells [2] (24 h, experimental series-I) and 164% with oligodendroglial cells [2] (24 h, experimental series-II (15.8×10^3 cell/mm^2)). Besides, in the test on oligodendroglial cells [2] (BM + 10^−9 M (BM-D9), 24 h, experimental series-I (5.3×10^3 cell/mm^2)), the “numbers of intact nuclei, % of those in IM” value worked out at 119%. Moreover, in the test with oligodendroglial cells [2] (BM + 10^−9 M, 24 h, metabolite experiments (FIG. 11)), the “increase in counts of intact nuclei compared to those for BM” value worked out at 194%. Moreover, the “concentration-survival relationship, numbers of intact nuclei” value in the test with oligodendroglial cells [2] (BM with 10^−5, 10^−7 and 10^−9 M, 24 h) was “graded increase in the numbers of intact nuclei with the greatest increase for 10^−9 M”. Further, the “number of intact nuclei compared to IM” value came to 135.6% in the test with oligodendroglial cells [2] (24 h, experimental series-I) and 102.4% in the test on oligodendroglial cells [2] (24 h, experimental series-II). Besides, the “Survival (24 h)” value with oligodendroglial cells [2] (OL cell survival, relative to control (IM)) is listed as “++++”.
